Measured values from BigSolDB 2.1.

## COc1ccccc1OCCNCC(O)COc1cccc2[nH]c3ccccc3c12 (stereo not given)
In PEG-400, 288.15 K
  solubility (mole fraction): 0.0501
In PEG-400, 293.15 K
  solubility (mole fraction): 0.0539
In PEG-400, 298.15 K
  solubility (mole fraction): 0.0582
In PEG-400, 303.15 K
  solubility (mole fraction): 0.062
In PEG-400, 308.15 K
  solubility (mole fraction): 0.0661
In THF, 288.15 K
  solubility (mole fraction): 0.0211
In THF, 293.15 K
  solubility (mole fraction): 0.0235
In THF, 298.15 K
  solubility (mole fraction): 0.0261
In THF, 303.15 K
  solubility (mole fraction): 0.0291
In THF, 308.15 K
  solubility (mole fraction): 0.0321
In acetone, 288.15 K
  solubility (mole fraction): 0.0125
In acetone, 293.15 K
  solubility (mole fraction): 0.0147
In acetone, 298.15 K
  solubility (mole fraction): 0.0173
In acetone, 303.15 K
  solubility (mole fraction): 0.0201
In acetone, 308.15 K
  solubility (mole fraction): 0.023
In dichloromethane, 288.15 K
  solubility (mole fraction): 0.00254
In dichloromethane, 293.15 K
  solubility (mole fraction): 0.00334
In dichloromethane, 298.15 K
  solubility (mole fraction): 0.00429
In dichloromethane, 303.15 K
  solubility (mole fraction): 0.00556
In dichloromethane, 308.15 K
  solubility (mole fraction): 0.00722
In ethanol, 288.15 K
  solubility (mole fraction): 0.000677
In ethanol, 293.15 K
  solubility (mole fraction): 0.000846
In ethanol, 298.15 K
  solubility (mole fraction): 0.00106
In ethanol, 303.15 K
  solubility (mole fraction): 0.00128
In ethanol, 308.15 K
  solubility (mole fraction): 0.00158
In ethyl acetate, 288.15 K
  solubility (mole fraction): 0.0015
In ethyl acetate, 293.15 K
  solubility (mole fraction): 0.00189
In ethyl acetate, 298.15 K
  solubility (mole fraction): 0.00239
In ethyl acetate, 303.15 K
  solubility (mole fraction): 0.00292
In ethyl acetate, 308.15 K
  solubility (mole fraction): 0.00362
In glycerin, 288.15 K
  solubility (mole fraction): 0.000273
In glycerin, 293.15 K
  solubility (mole fraction): 0.000307
In glycerin, 298.15 K
  solubility (mole fraction): 0.000342
In glycerin, 303.15 K
  solubility (mole fraction): 0.00038
In glycerin, 308.15 K
  solubility (mole fraction): 0.000421
In isopropanol, 288.15 K
  solubility (mole fraction): 0.000421
In isopropanol, 293.15 K
  solubility (mole fraction): 0.000555
In isopropanol, 298.15 K
  solubility (mole fraction): 0.000726
In isopropanol, 303.15 K
  solubility (mole fraction): 0.000947
In isopropanol, 308.15 K
  solubility (mole fraction): 0.00124
In methanol, 288.15 K
  solubility (mole fraction): 0.000767
In methanol, 293.15 K
  solubility (mole fraction): 0.000959
In methanol, 298.15 K
  solubility (mole fraction): 0.0012
In methanol, 303.15 K
  solubility (mole fraction): 0.00149
In methanol, 308.15 K
  solubility (mole fraction): 0.00185
In n-butanol, 288.15 K
  solubility (mole fraction): 0.000678
In n-butanol, 293.15 K
  solubility (mole fraction): 0.00079
In n-butanol, 298.15 K
  solubility (mole fraction): 0.000924
In n-butanol, 303.15 K
  solubility (mole fraction): 0.00108
In n-butanol, 308.15 K
  solubility (mole fraction): 0.00125
In n-propanol, 288.15 K
  solubility (mole fraction): 0.000634
In n-propanol, 293.15 K
  solubility (mole fraction): 0.000791
In n-propanol, 298.15 K
  solubility (mole fraction): 0.000996
In n-propanol, 303.15 K
  solubility (mole fraction): 0.00122
In n-propanol, 308.15 K
  solubility (mole fraction): 0.00149
In propylene glycol, 288.15 K
  solubility (mole fraction): 0.00138
In propylene glycol, 293.15 K
  solubility (mole fraction): 0.00155
In propylene glycol, 298.15 K
  solubility (mole fraction): 0.00174
In propylene glycol, 303.15 K
  solubility (mole fraction): 0.00193
In propylene glycol, 308.15 K
  solubility (mole fraction): 0.00213
